# Experimental data from patent publication US20230381144A1, “COMPOSITIONS AND METHODS FOR TREATMENT OF PAIN” (SYNVENTA LLC, priority 2019, published 2023).
# Assays:
# [1] = Radio-telemetry recording of core body temperature in conscious rats; assay type: in vivo, Sprague-Dawley rat
# Description: A laparotomy is performed.
# One week later, drugs tests are conducted.
# FIGS. 2-4 all show an increase in core body temperature approaching and at the zero time point. Those skilled in the art would readily appreciate that this increase is an artifact in the study associated with the required handling of the animals to effectuate the dosing.
# [2] = cited from earlier work
# [3] = 0.003 mg/kg and 0.01 mg/kg, i.p.; male and female rats
# Description: Adult male and female Sprague-Dawley are implanted with radio-telemetry transmitters for monitoring blood pressure and core body temperature. Radio-telemetry transmitter (DSI HD-S10) implantation is performed under sterile condition. Long-acting buprenorphine (1 mg/kg/day, SC) is administered prior to anesthesia for postoperative pain relief. Rats are anesthetized with 5% isoflurane and kept on 2% isoflurane to maintain a stable level of anesthesia. Body temperature is maintained during surgery using a heating pad. A laparotomy is performed. The catheter tip of the telemetry transmitter is secured with a 4-0 silk suture in the abdominal cavity. The body of the telemetry transmitter is placed in the abdominal cavity and secured to the abdominal wall. Approximately 100 μL of 0.25% marcaine is applied directly to the muscle incision, and the skin is then closed with a 5-0 Vicryl absorbable suture placed subcuticularly. After recovery from anesthesia, rats are returned to their home cages placed on DSI receivers.
# After one week of recovery, rats are habituated to the drug administration procedure over three separate sessions. One week later, drugs tests are conducted. […]
structure (smiles),measurement,setting,value
"CC(C)(C)c1ccc2c(c1)CC[C@H]2NC(=O)Nc1cccc2[nH]ncc12 [ABT-102, 1-[(1R)-5-tert-butyl-2,3-dihydro-1H-inden-1-yl]-3-(1H-indazol-4-yl)urea]",increase in body temperature above vehicle,"[1]; conscious, telemetry-instrumented rat, ABT-102 3 and 10 mg/kg, p.o., FIG. 2",up to 1.0 °C
"CC(=O)Nc1nc2c(Oc3cc(-c4ccc(C(F)(F)F)cc4)ncn3)cccc2s1 [AMG 517, N-(4-((6-(4-(trifluoromethyl)phenyl)pyrimidin-4-yl)oxy)benzo[d]thiazol-2-yl)acetamide]",temperature elevations,"[2]; Phase 1b study, reason the study was halted",unexpectedly high temperature elevations
same,analgesic effect,[2]; review of the data for the 17 subjects enrolled,no clear analgesic effect
Cc1cccc([C@H](C)c2cnc[nH]2)c1C [dexmedetomidine],"effect of dexmedetomidine on its own (FIG. 5, mean arterial blood pressure)",[3],free from causing hypothermic effects
same,effect on ABT-102-induced hyperthermia at the lowest tested dose,"[1]; dexmedetomidine 0.003 mg/kg in combination with ABT-102, FIG. 4",able to neutralize ABT-102-induced hyperthermia
same,effect on core body temperature,"[1]; dexmedetomidine alone, 0.003 mg/kg, FIG. 3",no effect
same,effect on ABT-102-induced increase in core body temperature,"[1]; dexmedetomidine in combination with ABT-102 5 mg/kg, p.o., FIG. 4, p<0.0001",prevented hyperthermic effects
